The results in this text go back to patent publication US20030170694A1, “Stabilized nucleic acids in gene and drug discovery and methods of use” (priority 2001, published 2003).

Values after ≈ are worked out from the molar mass of the structure shown. Like-named read-outs stand apart in the source and are kept apart here. Positions of bridges follow the written chain, without caps; N, C: chain ends. Non-standard residues stand in square brackets, D forms with d. Residues, ends and D or L forms follow the SMILES beside them. *: point of attachment. Ileψ(thiazoline)Cys = CC[C@H](C)[C@H](N)C1=N[C@H](C(=O)*)CS1; dOrn = NCCC[C@@H](N)C(=O)O

Test [1] deals with E. coli cells transcribing antisense RNA to rplL and rplJ (AS-rplL/J). Put plainly: microbe, parasite or virus in culture. The test is classed as cell-based. As to conditions: for Fold Increase: IC50 without IPTG vs IC50 with 400 μM IPTG; for Sensitivity (increased sensitivity observed in the presence of IPTG): statistically significant decrease in IC50 in the presence of inducer; for IC50: Escherichia coli. The protocol:
Antibiotics of various chemical classes and modes of action were purchased from Sigma Chemicals (St. Louis, Mo.). Stock solutions were prepared by dissolving each antibiotic in an appropriate aqueous solution based on information provided by the manufacturer. The final working solution of each antibiotic contained no more than 0.2% (w/v) of any organic solvent. To determine their potency against a bacterial strain engineered for transcription of an antisense comprising a nucleotide sequence complementary to a proliferation-required 50S ribosomal protein, each antibiotic was serially diluted two-or three-fold in growth medium supplemented with the appropriate antibiotic for maintenance of the antisense construct. At least ten dilutions were prepared for each antibiotic. 25 μL aliquots of each dilution were transferred to discrete wells of a 384-well microplate (the assay plate) using a multi-channel pipette. Quadruplicate wells were used for each dilution of an antibiotic under each treatment condition (plus and minus inducer). Each assay plate contained twenty wells for cell growth controls (growth medium replacing antibiotic), ten wells for each treatment (plus and minus inducer, in this example IPTG). Assay plates were usually divided into the two treatments: half the plate containing induced cells and an appropriate concentrations of inducer (in this example IPTG) to maintain the state of induction, the other half containing non-induced cells in the absence of IPTG.
Cells for the assay were prepared as follows. Bacterial cells containing a construct, from which transcription of antisense nucleic acid comprising a nucleotide sequence complementary to rplL and rplJ (AS-rplL/J), which encode proliferation-required 50S ribosomal subunit proteins, is inducible in the presence of IPTG, were grown into exponential growth (OD600 0.2 to 0.3) and then diluted 1:100 into fresh medium containing either 400 μM or 0 μM inducer (IPTG). These cultures were incubated at 37° C. for 2.5 hr. After a 2.5 hr incubation, induced and non-induced cells were respectively diluted into an assay medium at a final OD600 value of 0.0004. The medium contained an appropriate concentration of the antibiotic for the maintenance of the antisense construct. In addition, the medium used to dilute induced cells was supplemented with 800 μM IPTG so that addition to the assay plate would result in a final IPTG concentration of 400 μM. Induced and non-induced cell suspensions were dispensed (25 μl/well) into the appropriate wells of the assay plate as discussed previously. The plate was then loaded into a plate reader, incubated at constant temperature, and cell growth was monitored in each well by the measurement of light scattering at 595 nm. Growth was monitored every 5 minutes until the cell culture attained a stationary growth phase. For each concentration of antibiotic, a percentage inhibition of growth was calculated at the time point corresponding to mid-exponential growth for the associated control wells (no antibiotic, plus or minus IPTG). For each antibiotic and condition (plus or minus IPTG), a plot of percent inhibition versus log of antibiotic concentration was generated and the IC50 determined.

The subject of test [2] is E. coli transformed with IPTG-inducible antisense clones. The test is described as follows: Cell-based assay of antibiotic sensitivity in E. coli transcribing non-stabilized antisense RNA. From the text:
The effectiveness of the above cell-based assays in which the level or activity of a gene product required for proliferation was reduced was validated using constructs transcribing a non-stabilized antisense RNA to the proliferation required E. coli genes rplL, rplJ and rplW encoding ribosomal proteins L7/L12, L10 and L23 respectively. These proteins are essential components of the protein synthesis apparatus of the cell and as such are required for proliferation. Constructs transcribing antisense RNA to several other genes (elaD, visC, yohH, and atpE/B), the products of which are not involved in protein synthesis were used for comparison.
First, pLex5BA (Krause et al., J. Mol. Biol. 274: 365 (1997), the disclosure of which is incorporated herein by reference in its entirety) vectors containing antisense constructs to either rplW or to elaD were introduced into separate E. coli cell populations. […]
The cell populations containing vectors producing AS-elaD or AS-rplW were exposed to a range of IPTG concentrations in liquid medium to obtain the growth inhibitory dose curve for each clone (FIG. 5). First, seed cultures were grown to a particular turbidity measured by the optical density (OD) of the growth solution. […] The cells were grown for up to 15 hours and the extent of growth was determined by measuring the optical density of the cultures at 600 nm. […]

With `CCn1cc(C(=O)O)c(=O)c2ccc(C)nc21` [Nalidixic acid], in test [1], the “Fold Increase” value amounted to 1 and the “Sensitivity (increased sensitivity observed in the presence of IPTG)” value is on record as “No”. Further, the “sensitivity of clone to the antibiotic” value in test [2] (clone transcribing antisense to rplL and rplJ (AS-rplL/J)) was “does not show increased sensitivity”.

For the molecule `CO[C@@]1(NC(=O)Cc2cccs2)C(=O)N2C(C(=O)O)=C(COC(N)=O)CS[C@@H]21` [Cefoxitin], in test [1], the “Fold Increase” value was determined as 1 and the “Sensitivity (increased sensitivity observed in the presence of IPTG)” value is reported as “No”.

For `CN(C)c1ccc(O)c2c1C[C@H]1C[C@H]3[C@H](N(C)C)C(O)=C(C(N)=O)C(=O)[C@@]3(O)C(O)=C1C2=O` [Minocycline], the “Fold Increase” value in test [1] was 172.

Consider `CC(=O)O[C@H]1C[C@@]2(C)[C@@H](C[C@@H](O)[C@H]3[C@@]4(C)CC[C@@H](O)[C@@H](C)[C@@H]4CC[C@@]32C)/C1=C(\CCC=C(C)C)C(=O)O` [Fusidic acid], for which, in test [1], the “Fold Increase” value came out at 94 and the “Sensitivity (increased sensitivity observed in the presence of IPTG)” value is listed as “Yes”.

With `NC[C@H]1O[C@H](O[C@H]2[C@H](O)[C@@H](O[C@H]3O[C@H](CO)[C@@H](O)[C@H](N)[C@H]3O)[C@H](N)C[C@@H]2N)[C@H](N)C[C@@H]1O` [Tobramycin], in test [1], the “Fold Increase” value is listed as 51 and the “Sensitivity (increased sensitivity observed in the presence of IPTG)” value is “Yes”.

In the case of `O=C(N[C@H](CO)[C@H](O)c1ccc([N+](=O)[O-])cc1)C(Cl)Cl` [Chloramphenicol], in test [1], the “Fold Increase” value was 307 and the “Sensitivity (increased sensitivity observed in the presence of IPTG)” value is reported as “Yes”.

With `[H]/N=C(/N)N[C@H]1[C@H](O)[C@@H](O)[C@H](O[C@@H]2O[C@@H](C)[C@](O)(C=O)[C@H]2O[C@@H]2O[C@@H](CO)[C@H](O)[C@@H](O)[C@@H]2NC)[C@@H](N/C(N)=N\[H])[C@@H]1O` [Streptomycin], in test [1], the “Fold Increase” value stood at 70 and the “Sensitivity (increased sensitivity observed in the presence of IPTG)” value is on record as “Yes”.

As to `CO/N=C(\C(=O)N[C@@H]1C(=O)N2C(C(=O)O)=C(COC(C)=O)CS[C@H]12)c1csc(N)n1` [Cefotaxime], in test [1], the “Fold Increase” value amounted to 1 and the “Sensitivity (increased sensitivity observed in the presence of IPTG)” value was “No”.

As to `C[C@H]1c2cccc(O)c2C(=O)C2=C(O)[C@]3(O)C(=O)C(C(N)=O)=C(O)[C@@H](N(C)C)[C@@H]3[C@@H](O)[C@@H]21` [Doxycycline], the “Fold Increase” value in test [1] is 15.

Turning to `CN[C@@H]1[C@H](O)[C@H](NC)[C@H]2O[C@@]3(O)C(=O)C[C@@H](C)O[C@H]3O[C@@H]2[C@H]1O` [Spectinomycin], the IC50 in test [1] (read-out: IC50 (+IPTG)) is less than 0.156 µg/mL. In addition, the “Sensitivity (increased sensitivity observed in the presence of IPTG)” value in test [1] was “Yes”.

`CC1COc2c(N3CCN(C)CC3)c(F)cc3c(=O)c(C(=O)O)cn1c23` (centres unmarked) [Ofloxacin]: the “Fold Increase” value in test [1] is recorded as 1.

For `CC[C@H](C)[C@H](N)C1=N[C@H](C(=O)N[C@@H](CC(C)C)C(=O)N[C@H](CCC(=O)O)C(=O)N[C@H](C(=O)N[C@H]2CCCCNC(=O)[C@H](CC(N)=O)NC(=O)[C@@H](CC(=O)O)NC(=O)[C@H](Cc3cnc[nH]3)NC(=O)[C@@H](Cc3ccccc3)NC(=O)[C@H]([C@@H](C)CC)NC(=O)[C@@H](CCCN)NC2=O)[C@@H](C)CC)CS1` [Bacitracin] ({Ileψ(thiazoline)Cys}-L[dE]IK[dOrn]I[dF]H[dD]N; lactam 4-C), the IC50 in test [1] (read-out: IC50 (+IPTG)) stood at 4.68 µg/mL (≈ 3.29 µM). In addition, the IC50 in test [1] (read-out: IC50 (−IPTG)) stood at 4.08 µg/mL (≈ 2.87 µM). In test [1], the “Fold Increase” value worked out at 1 and the “Sensitivity (increased sensitivity observed in the presence of IPTG)” value is reported as “No”.

In the case of `CN(C)[C@@H]1C(O)=C(C(N)=O)C(=O)[C@@]2(O)C(O)=C3C(=O)c4c(O)cccc4[C@@](C)(O)[C@H]3C[C@@H]12` [Tetracycline], the “Fold Increase” value in test [1] was determined as 109.

Take `CN[C@H](CC(C)C)C(=O)N[C@H]1C(=O)N[C@@H](CC(N)=O)C(=O)N[C@H]2C(=O)N[C@H]3C(=O)N[C@H](C(=O)N[C@H](C(=O)O)c4cc(O)cc(O)c4-c4cc3ccc4O)[C@H](O)c3ccc(c(Cl)c3)Oc3cc2cc(c3O[C@@H]2O[C@H](CO)[C@@H](O)[C@H](O)[C@H]2O[C@H]2C[C@](C)(N)[C@H](O)[C@H](C)O2)Oc2ccc(cc2Cl)[C@H]1O` [Vancomycin]: the IC50 amounted to 72.5 µg/mL (≈ 50.1 µM) in test [1] (read-out: IC50 (+IPTG)) and 145 µg/mL (≈ 100 µM) in test [1] (read-out: IC50 (−IPTG)). Besides, in test [1], the “Fold Increase” value was 2. In addition, the “Sensitivity (increased sensitivity observed in the presence of IPTG)” value in test [1] was “No”.

For the molecule `CCC[C@@H]1C[C@@H](C(=O)N[C@@H]([C@H]2O[C@H](SC)[C@H](O)[C@@H](O)[C@H]2O)[C@@H](C)O)N(C)C1` [Lincomycin], in test [1], the “Fold Increase” value is 145 and the “Sensitivity (increased sensitivity observed in the presence of IPTG)” value is reported as “Yes”.

For `CC[C@H]1OC(=O)[C@H](C)[C@@H](O[C@H]2C[C@@](C)(OC)[C@@H](O)[C@H](C)O2)[C@H](C)[C@@H](O[C@@H]2O[C@H](C)C[C@H](N(C)C)[C@H]2O)[C@](C)(O)C[C@@H](C)C(=O)[C@H](C)[C@@H](O)[C@]1(C)O` [Erythromycin], in test [1], the “Fold Increase” value is 40 and the “Sensitivity (increased sensitivity observed in the presence of IPTG)” value was “Yes”. Besides, in test [2] (clones transcribing antisense to protein synthesis genes (L7/L12 & L10, L7/L12, L22, L18, rRNA, Elongation Factor G), initial experiments), the “sensitivity of clones to the antibiotic” value is “increased sensitivity”.

For the molecule Gentamicin, in test [1], the “Fold Increase” value was 141 and the “Sensitivity (increased sensitivity observed in the presence of IPTG)” value was “Yes”. Besides, the “IC50 (+IPTG)” value in test [1] (induced AS-rplL/J cells, 400 μM IPTG) was 0.01919 µg/mL. The “IC50 (−IPTG)” value in test [1] (non-induced AS-rplL/J cells, 0 μM IPTG) came out at 2.715 µg/mL.
